Measured values: patent US20130331389A1, “Methods and Compositions for Cardiomyocyte Replenishment by Endogenous and Progenitor Stem Cells” (NATIONAL CHENG KUNG UNIVERSITY, priority 2012, published 2013)

Key:
[1] = test system: Nkx2.5; experiment: Quantitative RT-PCR of Nkx2.5 in MI heart and in isolated cardiac Sca-1+ cells; format: in vivo, mouse
Experimental: (§1) To induce Cre recombination to achieve GFP labeling of cardiomyocytes, tamoxifen (Sigma) was dissolved in sunflower oil (Sigma) at a concentration of 5 mg/ml. The tamoxifen solution was injected intraperitoneally into M/Z mice daily at a dosage of 40 μg per 1 g body weight for 14 days, and the same dosage was injected twice daily for short-term labeling using methods known in the art (Laugwitz, K.-L. et al. Nature 433, 647-653 (2005)). All experimental conditions were optimized prior to the PGE2, indomethacin and TGF-β Type I Receptor Kinase Inhibitor II (ALK5 Inhibitor II, ALK5i, Merck) treatments. The mice treated with PGE2 or PGI2 (Vegiopoulos, A. et al. Science 328, 1158-1161 (2010)) (both from Sigma) were injected intraperitoneally with 3.33 ng of drug per 1 g of body weight dissolved in absolute ethanol twice daily. […]
The total RNA isolated from the ischemic region or remote area of MI hearts was reverse transcribed using the SuperScript III (Invitrogen) system according to the manufacturer's protocol. For quantitative PCR, the SYBR Green reagent (Maestrogen) was used according to the manufacturer's protocol. The analysis of relative gene expression was performed using the 2̂[−delta delta Ct] method and sequence-specific primers designed for semi-quantitative PCR and real-time RT-PCR (FIG. 11). […]

[2] = test system: Sca-1+ cells; experiment: Flow cytometry of Sca-1+/GFP+ cardiac small cells on day 3 post-MI; format: in vivo, mouse; details: tamoxifen 80 μg/g per day for 3 days, P<0.001
Experimental: as §1, with “daily. For the indomethacin treatment, mice were fed with water containing indomethacin (Sigma, 15 μg/ml) for different periods of time. The indomethacin-containing water was changed every 3 days. The mice subjected to the celecoxib (Lyons, T. R. et al. Nat. Med. 17, 1109-1115 (2011)) (Sigma) treatment were injected intraperitoneally with 5 μg of drug per 1 g of body weight daily. For ALK5i treatment, aged mice were injected intraperitoneally once per day with 1 μg of drug per 1 g of body weight one day before surgery and continuously until day 10 post-MI.” for “daily.”

## CCCCC[C@H](O)/C=C/C1C(O)CC(=O)C1C/C=C\CCCC(=O)O (stereo partly drawn) [PGE2, (5Z,11α,13E,15S)-7-[3-hydroxy-2-(3-hydroxyoct-1-enyl)-5-oxo-cyclopentyl]hept-5-enoic acid]
[1]; cardiac Sca-1+ cells isolated on day 3 after injury
  expression of Nkx2.5 in Sca-1+ cells: elevated
[1]; young mice, fold change normalized to sham
  expression of Nkx2.5 in the MI heart: enhances
[2]
  number of Sca-1+/GFP+ cells: expanding
